Assay results published in patent publication US11472807B2, “Purine derivatives for use as medicament and for use in treating neurodegenerative or neuro-inflammatory disorders” (COMMISSARIAT À L'ENERGIE ATOMIQUE ET AUX ENERGIES …, priority 2017, dated 2022).

Experiments:
IL-6 cytokine = assay: Secreted IL-6 in LPS-treated human primary glial cells (MSD ELISA); assay type: cell-based; settings: LPS 6 h, then purine derivative 10 μM for 18 h
Method: For assessing the cytokine production, human primary glial cells were grown until confluent on coated collagen 12-well plates. Cells were serum-starved in glial serum-free medium for 2 h and treated with LPS for 6 h before treatment with purine derivatives (10 μM) for an additional 18 h. Supernatants were harvested and secreted IL-6 cytokine was measured by ELISA by the mean of the Meso Scale Discovery (MSD) technology. Briefly, a 96-well plate having 1 spot pre-coated with the corresponding antibody is provided by MSD Technology. Before adding the samples, a first saturation step is required. Once the plate is saturated and washed, 25 μL of sample (or calibrators) per well are loaded and incubated for 1 hour. Then the plate is washed and incubated with 25 μL of the Detection Antibody solution (MSD SULFO-TAG) for 1 hour. At the end of the incubation, the plate is washed and then a chemical solution (Read buffer 1×) is added allowing electrochemiluminescence. After a short incubation (5 min) at room temperature, the plate is read on the QUICK Plex SQ120. The instrument measures the intensity of the light electrochemiluminescence.

p-Tau (Thr212) = assay: p-Tau (Thr212)/total Tau in rat cortical neurons (western-blot); assay type: cell-based; settings: purine derivative 10 μM (A100), 18 h
Method: Cells were lysed in freshly prepared lysis buffer containing in mM: Tris-HCl 50, EDTA 2, EGTA 2, NaCl 100, SDS 0.2%, Triton X-100 1%, proteases inhibitors (Roche Protease Inhibitor Cocktail #04693116001), phosphatases inhibitors (in mM: ammonium molybdate 0.1, β-glycerophosphate 20, NaF 50, Na-pyrophosphate 10, Orthovanadate 1). Protein concentration was measured by the Bradford assay and Laemmli buffer was added to each lysate. Proteins (10 μg per lane) were resolved on 12% Nu-PAGE (LifeTechonoliges #NP0342BOX) using MOPS SDS running buffer and transferred on Immobilon-FL PVDF membrane (Millipore #IPFL00010). Membranes were blocked one hour in TBS Tween20 0.1% BSA 5% at room temperature. Primary antibodies were incubated O/N at 4° C. and detected by Alexa 488 conjugated secondary antibodies (Life Techonologies #A11034 and A11029) diluted 1:1.000 in TBS Tween20 0.05% and 1% BSA. The antibodies specific for pThr212-Tau (Abcam #ab4842), pThr181-Tau (AbCam #ab75679), Tau (Millipore #MAB361), APP (Millipore #07-667) and Actin (Millipore #MAB1501) were diluted in TBS Tween20 0.05% and 1% BSA. Fluorescent signal was visualized with the VersaDoc™ Imaging System (Bio-Rad Laboratories) and quantified with Quantity One® Analysis Software. Grey levels measured for bands of interest were normalized to the corresponding actin bands.
For assessing the protein Tau's phosphorylation, the culture media of rat cortical neurons were replaced by incubation medium containing purine derivatives at 10 μM (A100) or vehicle (0.1% DMSO; Control). After 18 h incubation p-Tau (Thr212) and total Tau were quantified in the cellular extracts by western-blot.

`CC[C@H](CO)Nc1nc(N(C)Cc2ccccc2)c2ncn(C(C)C)c2n1` [Aftin-4] was tested, and the “Anti-inflammatory Compounds (secreted IL-6)” value (“Anti-inflammatory Compounds” below) (IL-6 cytokine) was “+(>1 μM) (“+” means that the tested compound shows an anti-inflammatory and/or attenuation of Tau's phosphorylation property with a concentration higher than 1 μM)”.
`CC[C@H](CO)Nc1nc(N(CC)Cc2ccccc2)c2ncn(C(C)C)c2n1` [Compound 13] was tested, and the “Attenuation of P-Tau/Tau ratio” value (p-Tau (Thr212)) was “+(>1 μM) (“+” means that the tested compound shows an anti-inflammatory and/or attenuation of Tau's phosphorylation property with a concentration higher than 1 μM)” and the “Anti-inflammatory Compounds” value (IL-6 cytokine) was “+(>1 μM) (“+” means that the tested compound shows an anti-inflammatory and/or attenuation of Tau's phosphorylation property with a concentration higher than 1 μM)”.
For `CC[C@H](CO)Nc1nc(N(C)Cc2ccccc2)c2ncn(C3CCCC3)c2n1` [Compound 14], the “Attenuation of P-Tau/Tau ratio” value (p-Tau (Thr212)) was “+(>1 μM) (“+” means that the tested compound shows an anti-inflammatory and/or attenuation of Tau's phosphorylation property with a concentration higher than 1 μM)” and the “Anti-inflammatory Compounds” value (IL-6 cytokine) was “+(>1 μM) (“+” means that the tested compound shows an anti-inflammatory and/or attenuation of Tau's phosphorylation property with a concentration higher than 1 μM)”.
With `CCN(Cc1ccccc1)c1nc(N[C@@H](CO)C(C)C)nc2c1ncn2C1CCCC1` [Compound 15] the “Attenuation of P-Tau/Tau ratio” value (p-Tau (Thr212)) was “+(>1 μM) (“+” means that the tested compound shows an anti-inflammatory and/or attenuation of Tau's phosphorylation property with a concentration higher than 1 μM)” and the “Anti-inflammatory Compounds” value (IL-6 cytokine) was “+(>1 μM) (“+” means that the tested compound shows an anti-inflammatory and/or attenuation of Tau's phosphorylation property with a concentration higher than 1 μM)”.
With `CCCN(Cc1ccccc1)c1nc(N[C@H](CC)CO)nc2c1ncn2C(C)C` [Compound 20] the “Attenuation of P-Tau/Tau ratio” value (p-Tau (Thr212)) was “+(>1 μM) (“+” means that the tested compound shows an anti-inflammatory and/or attenuation of Tau's phosphorylation property with a concentration higher than 1 μM)” and the “Anti-inflammatory Compounds” value (IL-6 cytokine) was “+(>1 μM) (“+” means that the tested compound shows an anti-inflammatory and/or attenuation of Tau's phosphorylation property with a concentration higher than 1 μM)”.
`CCN(CC)CCNc1nc(N(CC)Cc2ccccc2)c2ncn(C3CCCC3)c2n1` [Compound 22] was tested, and the “Attenuation of P-Tau/Tau ratio” value (p-Tau (Thr212)) was “+(>1 μM) (“+” means that the tested compound shows an anti-inflammatory and/or attenuation of Tau's phosphorylation property with a concentration higher than 1 μM)” and the “Anti-inflammatory Compounds” value (IL-6 cytokine) was “+(>1 μM) (“+” means that the tested compound shows an anti-inflammatory and/or attenuation of Tau's phosphorylation property with a concentration higher than 1 μM)”.
In the case of `CC[C@@H](CO)Nc1nc(N(C)c2ccccc2)c2ncn(C(C)C)c2n1` [Compound 26], the “Anti-inflammatory Compounds” value (IL-6 cytokine) is reported as “+(>1 μM) (“+” means that the tested compound shows an anti-inflammatory and/or attenuation of Tau's phosphorylation property with a concentration higher than 1 μM)”.
`CC[C@H](CO)Nc1nc(OCc2ccccc2)c2ncn(C(C)C)c2n1` [Compound 31] was tested, and the “Attenuation of P-Tau/Tau ratio” value (p-Tau (Thr212)) was “+(>1 μM) (“+” means that the tested compound shows an anti-inflammatory and/or attenuation of Tau's phosphorylation property with a concentration higher than 1 μM)” and the “Anti-inflammatory Compounds” value (IL-6 cytokine) was “+(>1 μM) (“+” means that the tested compound shows an anti-inflammatory and/or attenuation of Tau's phosphorylation property with a concentration higher than 1 μM)”.
In the case of `CC[C@H](CO)Nc1nc(NCc2ccccc2)c2ncn(C(C)C)c2n1` [Roscovitine, (R)-roscovitine, reference compound], the “Anti-inflammatory Compounds” value (IL-6 cytokine) is reported as “+(>1 μM) (“+” means that the tested compound shows an anti-inflammatory and/or attenuation of Tau's phosphorylation property with a concentration higher than 1 μM)”.
